According to ChEMBL document CHEMBL4837225, “Water-soluble derivatives of evodiamine: Discovery of evodiamine-10-phosphate as an orally active antitumor lead compound” (Eur J Med Chem, 2021):
Values after ≈ are worked out from the molar mass of the structure shown. Active and inactive are the calls of the source. No cut-off for these calls is given here.

Tests used:
HCT-116 [1] = test: Antiproliferative activity against human HCT-116 cells assessed as inhibition of cell proliferation incubated for 72 hrs by CCK8 assay; assay type: functional, cell-based; details: HCT-116, 72 h
[2] = Solubility of the compound in double distilled water; assay type: physicochemical
[3] = molecular target: DNA topoisomerase 2-alpha (Homo sapiens) (UniProt P11388); test: Inhibition of TOP2 (unknown origin) assessed as formation of short DNA fragments using supercoiled plasmid DNA at 100 uM by ethidium bromide staining based gel
Chain of DNA topoisomerase 2-alpha (Homo sapiens) (P11388 whole entry, the tested form may be a part): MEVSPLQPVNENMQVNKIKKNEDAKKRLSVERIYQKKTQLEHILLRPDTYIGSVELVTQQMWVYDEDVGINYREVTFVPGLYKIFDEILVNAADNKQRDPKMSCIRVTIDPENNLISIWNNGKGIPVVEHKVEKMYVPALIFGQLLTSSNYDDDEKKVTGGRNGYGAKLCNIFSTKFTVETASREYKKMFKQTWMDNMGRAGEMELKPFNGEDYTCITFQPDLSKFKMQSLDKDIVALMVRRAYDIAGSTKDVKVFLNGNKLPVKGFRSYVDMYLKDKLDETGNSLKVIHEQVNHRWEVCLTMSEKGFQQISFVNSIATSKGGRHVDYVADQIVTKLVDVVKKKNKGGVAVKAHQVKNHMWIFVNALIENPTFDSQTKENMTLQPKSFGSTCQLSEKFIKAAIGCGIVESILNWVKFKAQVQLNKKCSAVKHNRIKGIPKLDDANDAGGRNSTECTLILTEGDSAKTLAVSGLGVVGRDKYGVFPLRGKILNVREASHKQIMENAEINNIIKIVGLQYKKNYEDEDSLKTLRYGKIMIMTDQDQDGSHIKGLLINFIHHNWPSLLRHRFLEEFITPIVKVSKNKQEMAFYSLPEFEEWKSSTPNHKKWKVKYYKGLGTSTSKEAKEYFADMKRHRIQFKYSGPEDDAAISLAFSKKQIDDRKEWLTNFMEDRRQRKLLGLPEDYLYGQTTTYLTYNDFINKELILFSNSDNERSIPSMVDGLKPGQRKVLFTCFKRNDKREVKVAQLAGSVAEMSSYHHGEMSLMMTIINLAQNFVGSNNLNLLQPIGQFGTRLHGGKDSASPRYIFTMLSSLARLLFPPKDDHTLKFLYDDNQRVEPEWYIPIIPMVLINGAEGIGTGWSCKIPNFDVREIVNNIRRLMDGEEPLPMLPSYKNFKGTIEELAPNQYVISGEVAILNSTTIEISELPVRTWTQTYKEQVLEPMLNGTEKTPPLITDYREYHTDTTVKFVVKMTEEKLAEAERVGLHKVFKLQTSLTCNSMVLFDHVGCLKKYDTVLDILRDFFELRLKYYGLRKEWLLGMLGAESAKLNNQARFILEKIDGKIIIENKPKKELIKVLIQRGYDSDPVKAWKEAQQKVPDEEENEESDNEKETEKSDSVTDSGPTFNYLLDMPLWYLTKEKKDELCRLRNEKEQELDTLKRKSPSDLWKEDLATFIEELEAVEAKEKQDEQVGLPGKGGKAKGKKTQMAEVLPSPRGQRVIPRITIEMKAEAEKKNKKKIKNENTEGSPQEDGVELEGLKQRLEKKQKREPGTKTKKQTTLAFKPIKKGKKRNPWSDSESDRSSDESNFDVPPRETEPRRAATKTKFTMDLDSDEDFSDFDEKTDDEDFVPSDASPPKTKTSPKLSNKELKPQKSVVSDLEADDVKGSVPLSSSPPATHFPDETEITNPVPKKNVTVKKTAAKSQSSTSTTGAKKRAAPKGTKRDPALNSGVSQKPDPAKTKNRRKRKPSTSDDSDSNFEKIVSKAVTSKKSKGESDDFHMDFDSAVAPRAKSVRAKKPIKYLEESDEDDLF

A549 = test: Antiproliferative activity against human A549 cells assessed as inhibition of cell proliferation incubated for 72 hrs by CCK8 assay; assay type: functional, cell-based; details: A549, 72 h
MDA-MB-231 = test: Antiproliferative activity against human MDA-MB-231 cells assessed as inhibition of cell proliferation incubated for 72 hrs by CCK8 assay; assay type: functional, cell-based; details: MDA-MB-231, 72 h
[4] = molecular target: T1, DNA topoisomerase 1 (Homo sapiens) (UniProt P11387); test: Inhibition of TOP1 (unknown origin) assessed as decrease in relaxation of supercoiled DNA using pBR322 plasmid DNA as substrate at 100 uM by ethidium bromide staining based gel electrophoresis
T1 sequence (whole entry): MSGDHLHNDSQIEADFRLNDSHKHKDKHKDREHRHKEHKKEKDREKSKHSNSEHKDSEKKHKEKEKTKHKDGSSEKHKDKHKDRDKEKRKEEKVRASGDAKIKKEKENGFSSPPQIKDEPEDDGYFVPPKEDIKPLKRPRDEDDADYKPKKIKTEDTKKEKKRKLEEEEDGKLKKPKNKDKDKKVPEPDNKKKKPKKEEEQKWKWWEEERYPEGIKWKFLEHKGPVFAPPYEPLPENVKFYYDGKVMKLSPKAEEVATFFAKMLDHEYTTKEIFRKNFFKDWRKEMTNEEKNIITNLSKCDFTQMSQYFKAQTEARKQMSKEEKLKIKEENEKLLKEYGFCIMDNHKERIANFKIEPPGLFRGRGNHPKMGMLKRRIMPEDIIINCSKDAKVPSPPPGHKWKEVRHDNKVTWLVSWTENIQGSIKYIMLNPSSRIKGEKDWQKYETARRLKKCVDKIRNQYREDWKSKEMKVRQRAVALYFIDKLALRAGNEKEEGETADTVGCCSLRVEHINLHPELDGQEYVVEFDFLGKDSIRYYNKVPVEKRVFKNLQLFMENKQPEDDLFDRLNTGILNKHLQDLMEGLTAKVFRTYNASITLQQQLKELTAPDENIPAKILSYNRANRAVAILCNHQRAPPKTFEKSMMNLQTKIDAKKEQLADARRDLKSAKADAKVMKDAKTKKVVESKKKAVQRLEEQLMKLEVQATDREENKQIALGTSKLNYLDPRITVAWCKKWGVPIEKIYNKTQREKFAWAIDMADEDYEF

HCT-116 [5] = test: Antitumor activity against human HCT-116 cells xenografted in BALB/c nude mouse assessed as inhibition of tumor growth at 16 mg/kg/day, ip BID administered for 21 days measured by caliper; assay type: functional, organism-based; details: time 21.0 day
HCT-116 [6] = test: Antitumor activity against human HCT-116 cells xenografted in BALB/c nude mouse assessed as necrosis at 150 mg/kg, po bid by H&E staining based light microscopic analysis; assay type: functional, organism-based
[7] = Half life in mouse liver microsomes; assay type: ADME, Microsome
HCT-116 [8] = test: Antitumor activity against human HCT-116 cells xenografted in BALB/c nude mouse assessed as inhibition of tumor growth at 150 mg/kg, po BID measured by caliper relative to control; assay type: functional; details: HCT-116, po, read-out: TGI
[9] = Toxicity in BALB/c nude mouse xenografted with human A549 cells assessed as morphological changes in kidney at 150 mg/kg, po bid by H&E staining based light microscopic analysis; assay type: organism-based; details: in vivo
HCT-116 [10] = test: Antitumor activity against human HCT-116 cells xenografted in BALB/c nude mouse assessed as inhibition of tumor growth at 60 mg/kg, po BID administered for 21 days measured by caliper relative to control; assay type: functional; details: HCT-116, po, 504 h, time 21 day, read-out: TGI
[11] = Toxicity in BALB/c nude mouse xenografted with human A549 cells assessed as morphological changes in liver at 150 mg/kg, po bid by H&E staining based light microscopic analysis; assay type: organism-based; details: in vivo
[12] = Toxicity in BALB/c nude nude mouse xenografted with human HCT-116 cells assessed as decrease in body weight at 0.5 mg/kg/day, ip QD administered for 16 consecutive days; assay type: organism-based; details: in vivo, 384 h, time 16 day
HCT-116 [13] = test: Antitumor activity against human HCT-116 cells xenografted in BALB/c nude nude mouse assessed as tumor growth inhibition at 16 mg/kg/day, ip QD administered for 16 consecutive days measured by caliper relative to control; assay type: functional; details: HCT-116, ip, 384 h, time 16 day, read-out: TGI
HCT-116 [14] = test: Antitumor activity against human HCT-116 cells xenografted in BALB/c nude mouse assessed as inhibition of tumor growth at 16 mg/kg, ip QD administered for 21 days measured by caliper; assay type: functional, organism-based; details: time 21.0 day

SMILES | IC50 (HCT-116 [1]) [µM] | solubility [2] [µg/mL] | inhibition [3] | IC50 (A549) [µM] | IC50 (MDA-MB-231) [µM] | also measured
CN1c2ccccc2C(=O)N2CCc3c([nH]c4ccc(NS(N)(=O)=O)cc34)C21 (centres undefined) | 1.1 | 23 (≈ 57.9 µM) | Active | 5 | 0.84 | 
CN1c2ccccc2C(=O)N2CCc3c([nH]c4ccc(NC(=O)C(N)Cc5ccccc5)cc34)C21 (centres undefined) | 4.4 | 16 (≈ 34.4 µM) | Active | > 10 | > 10 | 
CN1c2ccccc2C(=O)N2CCc3c([nH]c4ccc(NC(=O)C(N)Cc5c[nH]c6ccccc56)cc34)C21 (centres undefined) | 1.7 | 12 (≈ 23.8 µM) | Active | > 10 | 0.52 | 
CN1c2ccccc2C(=O)N2CCc3c([nH]c4ccc(NC(=O)C(N)Cc5ccc(O)cc5)cc34)C21 (centres undefined) | 1.26 | 12 (≈ 24.9 µM) | Active | > 10 | 0.55 | 
CC[C@@]1(O)C(=O)OCc2c1cc1n(c2=O)Cc2cc3ccccc3nc2-1 [CAMPTOTHECIN] | 0.017 |  |  | 0.17 | 0.241 | 
CN1c2ccccc2C(=O)N2CCc3c([nH]c4ccc(NC(=O)C5CCC(=O)N5)cc34)C21 (centres undefined) | > 10 | 11 (≈ 25.6 µM) | Active | > 10 | > 10 | 
CN1c2ccccc2C(=O)N2CCc3c([nH]c4ccc(OC(=O)CCC(=O)OCCN5CCOCC5)cc34)C21 (centres undefined) | < 0.003 | 17 (≈ 31.9 µM) | Active | > 10 | 0.02 | 
CN1c2ccccc2C(=O)N2CCc3c([nH]c4ccc(OC(=O)CCC(=O)OCCN5CCCCC5)cc34)C21 (centres undefined) | < 0.003 | 18 (≈ 33.9 µM) | Active | 9.22 | 0.68 | 
CN1c2ccccc2C(=O)N2CCc3c([nH]c4ccc(NC(=O)C5CCCN5)cc34)C21 (centres undefined) | > 10 | 15 (≈ 36.1 µM) | Active | > 10 | > 10 | 
CN1c2ccccc2C(=O)N2CCc3c([nH]c4ccc(NC(=O)C(N)CCC(N)=O)cc34)C21 (centres undefined) | 5.8 | 14 (≈ 31.4 µM) | Active | > 10 | > 10 | 
CN1c2ccccc2C(=O)N2CCc3c([nH]c4ccc(NC(=O)CCC(=O)O)cc34)C21 (centres undefined) | 1.4 | 16 (≈ 38.2 µM) | Active | > 10 | 0.53 | 

Further lines, with some results ahead:

IC50 (HCT-116 [1]) [µM] | solubility [2] [µg/mL] | inhibition [3] | IC50 (A549) [µM] | IC50 (MDA-MB-231) [µM] | SMILES | also measured
< 0.003 | 15 (≈ 35.8 µM) | inactive | 5.49 | 0.26 | CN1c2ccccc2C(=O)N2CCc3c([nH]c4ccc(OC(=O)CCC(=O)O)cc34)C21 (centres undefined) | 
< 0.003 | 18 (≈ 43 µM) | Active | > 10 | 0.049 | CC(C)[C@H](N)C(=O)Oc1ccc2[nH]c3c(c2c1)CCN1C(=O)c2ccccc2N(C)C31 (some centres undefined) | inhibition [4]: Active
1.6 | 15 (≈ 33.4 µM) | Active | > 10 | 0.81 | CSCCC(N)C(=O)Nc1ccc2[nH]c3c(c2c1)CCN1C(=O)c2ccccc2N(C)C31 (centres undefined) | 
1.6 | 19 (≈ 50.6 µM) | Active | 3.7 | 1.2 | CN1c2ccccc2C(=O)N2CCc3c([nH]c4ccc(NC(=O)CN)cc34)C21 (centres undefined) | 
0.46 | 29 (≈ 73.1 µM) | Active | 0.72 | 0.19 | CN1c2ccccc2C(=O)N2CCc3c([nH]c4ccc(NS(C)(=O)=O)cc34)C21 (centres undefined) | TGI (HCT-116 [5]): inactive
0.39 | 10 (≈ 31.4 µM) | Active | 4.8 | 1.8 | CN1c2ccccc2C(=O)N2CCc3c([nH]c4ccc(N)cc34)C21 (centres undefined) | inhibition [4]: inactive; TGI (HCT-116 [5]): inactive
0.021 | 12 (≈ 24.2 µM) | Active | > 10 | > 10 | CN1c2ccccc2C(=O)N2CCc3c([nH]c4ccc(OC(=O)[C@@H](N)COCc5ccccc5)cc34)C21 (some centres undefined) | inhibition [4]: Active
1.6 | 11 (≈ 26.2 µM) | Active | > 10 | > 10 | CC(O)C(N)C(=O)Nc1ccc2[nH]c3c(c2c1)CCN1C(=O)c2ccccc2N(C)C31 (centres undefined) | 
> 10 | 14 (≈ 32.4 µM) | Active | > 10 | > 10 | CC(C)CC(N)C(=O)Nc1ccc2[nH]c3c(c2c1)CCN1C(=O)c2ccccc2N(C)C31 (centres undefined) | 
1.4 | 25 (≈ 64.2 µM) | Active | > 10 | 1.8 | CNCC(=O)Nc1ccc2[nH]c3c(c2c1)CCN1C(=O)c2ccccc2N(C)C31 (centres undefined) | 
0.04 | 37 (≈ 92.9 µM) | Active | 0.41 | 0.53 | CN1c2ccccc2C(=O)N2CCc3c([nH]c4ccc(OS(N)(=O)=O)cc34)C21 (centres undefined) | 
< 0.003 | 24 (≈ 59 µM) | Active | 2.61 | 2.34 | CN1c2ccccc2C(=O)N2CCc3c([nH]c4ccc(OC(=O)[C@@H](N)CO)cc34)C21 (some centres undefined) | inhibition [4]: Active
0.94 | 28 (≈ 71.9 µM) | Active | 4.9 | 0.52 | CC(N)C(=O)Nc1ccc2[nH]c3c(c2c1)CCN1C(=O)c2ccccc2N(C)C31 (centres undefined) | 
1.9 | 20 (≈ 49.3 µM) | Active | 6.3 | 0.87 | CN1c2ccccc2C(=O)N2CCc3c([nH]c4ccc(NC(=O)C(N)CO)cc34)C21 (centres undefined) | 
< 0.003 | 11 (≈ 34.4 µM) | Active | 0.28 | 0.094 | CN1c2ccccc2C(=O)N2CCc3c([nH]c4ccc(O)cc34)[C@H]21 | Activity (HCT-116 [6]): Active; half-life [7]: 14.3 min; inhibition in vivo at 150 mg/kg (HCT-116 [8]): 57%; Activity [9]: Non-Toxic; inhibition in vivo at 60 mg/kg (HCT-116 [10]): 24%; Activity [11]: Non-Toxic
0.007 | 30 (≈ 72 µM) | Active | 0.43 | 1.15 | CN1c2ccccc2C(=O)N2CCc3c([nH]c4ccc(OC(=O)[C@@H]5CCCN5)cc34)C21 (some centres undefined) | inhibition in vivo at 150 mg/kg (HCT-116 [8]): 39%; Activity [12]: Toxic; inhibition in vivo at 16 mg/kg/day (HCT-116 [13]): 55%; Activity (HCT-116 [14]): inactive
